These are literature values, as cited in patent US10640830B2, “Drug selection for non-small cell lung cancer therapy” (NESTEC S.A., priority 2013, dated 2020).

SMILES strings stand for the structures.

For series [1] the following is noted: in vivo.
The conditions of series [2]: early Phase I evaluation.
The subject of another series is human xenograft models. The settings on record: dosed orally in human xenograft models. On the technique in general: A xenograft is tissue or cells of one species grown in another, often human tumour cells in immunodeficient mice.

In the case of `COc1cc2c(Oc3ccc(NC(=O)C4(C(=O)Nc5ccc(F)cc5)CC4)cc3F)ccnc2cc1OCCCN1CCOCC1` [GSK 1363089/XL880], the oral bioavailability result in series [1] is recorded as “good oral bioavailability”. Also, the “CYP450 substrate / inhibitor / inducer” value in the series on CYP450 was “CYP450 substrate, but not an inhibitor or inducer”.
As for `CN(C[C@@H]1COCCO1)S(=O)(=O)Nc1ccc2ccc3ncc(-c4cnn(C)c4)cc3c(=O)c2c1` [MK-2461], in series [2], the tolerability entry is “well tolerated”.
Turning to `Cn1cc(-c2ccc3nnc(Sc4ccc5ncccc5c4)n3n2)cn1` [SGX523], in the series with human xenograft models, the antitumor activity result is recorded as “potent antitumor activity” and the toxicity result is “no overt toxicity”.
